Structures are written as SMILES. Several values for one entry are separate records, joined by “and”; a condition that tells them apart may be missing. Identical values can stand only once.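 Grown in 96-well plates, cells were treated for 48 hours with each compound at five concentrations. Insufficient inhibition: endpoint recorded as highest concentration tested. At the GI50, growth is halved. TGI marks complete inhibition of growth.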 Where only a bound is given, the exact number is not on record here.

Some test systems named below: HT29 colon; A498 renal; RPMI-8226 leukemia; NCI-H460 lung; HOP-62 NSCLC; U251 CNS; MOLT-4 leukemia; MCF7 breast; SF-539 CNS; SN12C renal.
Common to all, as to assay: NCI anticancer screen, dose series, 48 h

With `CNCCNc1nc2ccccc2c2c(=O)c3cccc(OC)c3sc12`, the GI50 in the assay with HT29 colon is 0.652 µM; in the assay with A498 renal it was 1410 nM; in the assay on RPMI-8226 leukemia, 1.43 µM; in the assay with NCI-H460 lung, 1.23 µM; in the assay on HOP-62 NSCLC, 1250 nM; with U251 CNS it was 1240 nM. Further, the GI50 in the assay with MOLT-4 leukemia is 0.427 µM; in the assay with MCF7 breast, 1.17 µM; with SF-539 CNS, 1.69 µM; in the assay on SN12C renal, 1.08 µM. In addition, the TGI is 2.28 µM in the assay with HT29 colon; 2.97 µM in the assay on A498 renal; 3.28 µM in the assay with RPMI-8226 leukemia; 2.72 µM with NCI-H460 lung; 2.92 µM with HOP-62 NSCLC; 2.65 µM in the assay with U251 CNS. Moreover, the TGI is 1.63 µM in the assay on MOLT-4 leukemia, 2.59 µM with MCF7 breast, 3.12 µM with SF-539 CNS and 2.53 µM in the assay on SN12C renal.
Regarding `Cn1c(=O)c(F)c(Nc2ccc(I)cc2F)c2c(=O)n(C[C@@H](O)CO)cnc21`, the GI50 in the assay with HT29 colon is < 0.01 µM and 0.0029 µM; in the assay with A498 renal it was < 10 nM and 10.3 nM; with RPMI-8226 leukemia it was 9.12 µM; with HOP-62 NSCLC it was 54.5 nM and 15.1 nM; in the assay on U251 CNS, 741 nM and 246 nM; in the assay with MOLT-4 leukemia, 18.4 µM. Moreover, the GI50 with MCF7 breast was 21 µM; in the assay with SF-539 CNS, 3.21 µM and 0.907 µM; in the assay on SN12C renal, 3.91 µM and 0.487 µM. The TGI with HT29 colon was 19.5 µM and > 3.46 µM; with A498 renal it was 0.0305 µM and 0.0752 µM; in the assay with RPMI-8226 leukemia, over 91.8 µM; in the assay on NCI-H460 lung it was over 100 µM; with HOP-62 NSCLC, over 69.7 µM; in the assay on U251 CNS it was over 49.9 µM. For the same molecule, the TGI with MOLT-4 leukemia is 45.1 µM and > 4.74 µM; with MCF7 breast, 75 µM and > 4.05 µM; in the assay on SF-539 CNS, 22.8 µM and > 4.07 µM; in the assay with SN12C renal, over 100 µM.
`CCCCOC(=O)N[C@H]1CCc2cc(OC)c(OC)c(OC)c2-c2ccc(SC)c(=O)cc21`: the TGI with HT29 colon is under 0.0281 µM; with A498 renal, 27.6 µM; with RPMI-8226 leukemia, 17.1 µM; in the assay on NCI-H460 lung, 0.115 µM; with HOP-62 NSCLC it was 40.3 µM; in the assay on U251 CNS, 3.87 µM. The TGI is 57.8 µM with MOLT-4 leukemia, 26 µM with MCF7 breast, under 0.01 µM in the assay on SF-539 CNS and 34.2 µM in the assay with SN12C renal.
Regarding `O=C(CC1C(=O)Nc2ccccc2S1=O)Nc1cccc(Cl)c1` (configuration not stated), the TGI is over 55.1 µM in the assay on HT29 colon; 47.3 µM with A498 renal; over 31 µM in the assay on RPMI-8226 leukemia; over 83.2 µM with NCI-H460 lung; over 77.6 µM in the assay with HOP-62 NSCLC; over 100 µM in the assay with U251 CNS. Besides, the TGI with MOLT-4 leukemia is over 67.2 µM; in the assay with MCF7 breast, 29.9 µM; with SF-539 CNS it was 43.7 µM; with SN12C renal, over 100 µM.
Consider `C=C1C(=O)O[C@H]2[C@H]1CC/C(Cn1cc(CCC)nn1)=C\CC[C@@]1(C)O[C@@H]21`, for which the GI50 in the assay on HT29 colon was 5.5 µM; with A498 renal, 21500 nM; in the assay with RPMI-8226 leukemia, 5.52 µM; in the assay on NCI-H460 lung, 21.2 µM; in the assay with HOP-62 NSCLC, 14100 nM; in the assay with U251 CNS, 14100 nM. Further, the GI50 is 5.54 µM in the assay on MOLT-4 leukemia, 3.35 µM with MCF7 breast, 8.87 µM with SF-539 CNS and 12.1 µM in the assay with SN12C renal. The TGI in the assay with HT29 colon turned out to be 18.2 µM; in the assay with A498 renal it was 36.6 µM; with RPMI-8226 leukemia, 27.1 µM; with NCI-H460 lung, 41.5 µM; with HOP-62 NSCLC it was 27.8 µM; in the assay with U251 CNS, 27.7 µM. For the same molecule, the TGI in the assay on MOLT-4 leukemia amounted to 27.6 µM; in the assay with MCF7 breast it was 15.4 µM; with SF-539 CNS, 22.5 µM; with SN12C renal it was 29.4 µM.
Consider `CC1SC(c2cccs2)N(NC(=O)C(O)c2ccccc2)C1=O` (configuration not stated), for which the GI50 was over 100 µM in the assay with HT29 colon; over 100000 nM in the assay on A498 renal; over 100 µM in the assay with RPMI-8226 leukemia; over 100 µM in the assay with NCI-H460 lung; over 100000 nM in the assay on HOP-62 NSCLC; over 100000 nM in the assay on U251 CNS. In addition, the GI50 in the assay on MOLT-4 leukemia, in the assay on MCF7 breast, in the assay with SF-539 CNS and with SN12C renal was over 100 µM in each case. Moreover, the TGI with HT29 colon, in the assay with A498 renal, with RPMI-8226 leukemia, with NCI-H460 lung, in the assay with HOP-62 NSCLC and with U251 CNS was over 100 µM each time. Also, the TGI in the assay with MOLT-4 leukemia, with MCF7 breast, with SF-539 CNS and in the assay with SN12C renal was over 100 µM each time.
Take `CC(C)(C)NNc1c([N+](=O)[O-])cnn(-c2ccccc2)c1=O`: the TGI in the assay with HT29 colon is 7.43 µM; in the assay with A498 renal, over 100 µM; with RPMI-8226 leukemia, 23.8 µM; in the assay on NCI-H460 lung, 26.3 µM; in the assay with HOP-62 NSCLC it was 22.3 µM; with U251 CNS, 8.05 µM. The TGI stood at 4.91 µM with MOLT-4 leukemia, 14.1 µM with MCF7 breast, 27.1 µM in the assay with SF-539 CNS and 6.35 µM with SN12C renal.
For the molecule `O=C(Nc1ccccc1Cl)c1ccc(NC2=C(Cl)C(=O)N(Cc3ccccc3)C2=O)cc1`, the GI50 is 44.8 µM with HT29 colon; over 100000 nM with A498 renal; over 100 µM in the assay on RPMI-8226 leukemia; 33.3 µM in the assay with NCI-H460 lung; 41200 nM with HOP-62 NSCLC; 38400 nM in the assay with U251 CNS. Moreover, the GI50 is 19.1 µM in the assay on MOLT-4 leukemia, 17.2 µM with MCF7 breast, 45.6 µM in the assay on SF-539 CNS and 27.8 µM in the assay with SN12C renal. The TGI in the assay with HT29 colon, in the assay with A498 renal, in the assay on RPMI-8226 leukemia, with NCI-H460 lung, with HOP-62 NSCLC and in the assay with U251 CNS was over 100 µM throughout. Besides, the TGI in the assay on MOLT-4 leukemia was 50.8 µM; in the assay with MCF7 breast it was 36 µM; in the assay on SF-539 CNS it was over 100 µM; with SN12C renal it was 73.7 µM.
For the molecule `Nc1nc(Cl)nc2c1ncn2C1O[C@H](CO)[C@@H](O)[C@@H]1F` (some centres not stated), the TGI in the assay on HT29 colon is over 100 µM; with A498 renal, 14.3 µM; with RPMI-8226 leukemia it was over 100 µM; with NCI-H460 lung it was over 100 µM; in the assay on HOP-62 NSCLC it was 20.6 µM; in the assay with U251 CNS it was over 100 µM. In addition, the TGI was over 100 µM in the assay on MCF7 breast, over 37.9 µM with SF-539 CNS and over 100 µM in the assay with SN12C renal. Also, the GI50 with A498 renal was 682 nM; in the assay with RPMI-8226 leukemia it was over 31.5 µM; in the assay on NCI-H460 lung, 0.37 µM; with HOP-62 NSCLC, 239 nM; in the assay on U251 CNS it was 442 nM; with MOLT-4 leukemia, 0.033 µM. Besides, the GI50 in the assay with MCF7 breast was 0.185 µM; in the assay with SF-539 CNS, 3.64 µM; in the assay with SN12C renal, 0.0668 µM.

These data come from PubChem BioAssay (NCI).
